# Tests used:
# Assay in all cases: Cell growth inhibition, CellTiter-Glo, 72 h
# Assay type in all cases: cell-based
# 22RV1 cells = details: Homo sapiens, 72 h culture, mean of N=2
# Experimental: (§1) 22RV1, vCap, MM1S and OPM-2 cells were cultured in RPMI-1640 medium (10% fetal bovine serum and 100 units of penicillin/streptomycin dual-antibody per mL were added to RPMI-1640) in a cell incubator at 37°C with 5% CO2, respectively. Cells in logarithmic growth phase were seeded into 96-well cell culture plates at 5×10^3 cells/100 µL/well and cultured overnight. Active compounds dissolved in DMSO at different concentrations were added with a final concentration of 0.5% DMSO. 1% Tween 20 was used as positive control and 0.5% DMSO was used as negative control. After 72 h of culture, an equal volume of CellTiter-Glo was added to each well, mixed by shaking for 2 min, and left standing at room temperature for 10 min. […] signal values were read with a microplate reader. Data were analyzed and graphs were generated using Prism 7.0. The values shown are mean ± SEM (N=2). […] The formula for inhibition rate is as follows: % Inhibition = (Icompound−IZPE)/(IHPE−IZPE) × 100 [formula]
# (§2) The X-axis is compound concentration (nM), and the Y-axis is % Inhibition.
# OPM-2 cells = details: Homo sapiens, 72 h culture, mean of N=2
# Experimental: as §1, §2
# vCap cells = details: Homo sapiens, 72 h culture, mean of N=2
# Experimental: as §1, §2
# MM1S cells = details: Homo sapiens, MM1.S, 72 h culture, mean of N=2
# Experimental: as §1, §2
Compound,IC50 (22RV1 cells),IC50 (OPM-2 cells),IC50 (vCap cells),IC50 (MM1S cells)
CC#CC(=O)N1CCC(c2cc3c(c(N4CCCc5cc(-c6cnn(C)c6)c(C(F)F)cc54)c2)CN(C(C)=O)C3)CC1 [Compound 1359],545 nM,15 nM,,
C=C(F)C(=O)N1CCC(c2cc3c(c(N4CCCc5cc(-c6cnn(C)c6)c(C(F)F)cc54)c2)CN(C(C)=O)C3)CC1 [Compound 1365],3350 nM,30 nM,,
C=CS(=O)(=O)N1CCC(c2cc3c(c(N4CCCc5cc(-c6cnn(C)c6)c(C(F)F)cc54)c2)CN(C(C)=O)CC3)CC1 [Compound 1368],1390 nM,168 nM,,
CC(=O)N1Cc2cc(C3CCN(CCN4CCC(CNc5cccc6c5C(=O)N(C5CCC(=O)NC5=O)C6=O)CC4)CC3)cc(N3CCCc4cc(-c5cnn(C)c5)c(C(F)F)cc43)c2C1 (centres unmarked) [Compound 2019],2.43 nM,,1.25 nM,
CC(=O)N1Cc2cc(C3CCN(CC4CCN(CCCc5cccc6c5C(=O)N(C5CCC(=O)NC5=O)C6=O)CC4)CC3)cc(N3CCCc4cc(-c5cnn(C)c5)c(C(F)F)cc43)c2C1 (centres unmarked) [Compound 2020],1.87 nM,,0.53 nM,
CNC(=O)N1CCc2cc(C3CCN(CCN4CCC(CNc5cccc6c5C(=O)N(C5CCC(=O)NC5=O)C6=O)CC4)CC3)cc(N3CCCc4cc(-c5cnn(C)c5)c(C(F)F)cc43)c2C1 (centres unmarked) [Compound 2021],0.5 nM,,0.545 nM,
CNC(=O)N1CCc2cc(C3CCN(CC4CCN(CCCc5cccc6c5C(=O)N(C5CCC(=O)NC5=O)C6=O)CC4)CC3)cc(N3CCCc4cc(-c5cnn(C)c5)c(C(F)F)cc43)c2C1 (centres unmarked) [Compound 2022],0.3 nM,,2.12 nM,
COC(=O)N1Cc2cc(C3CCN(C(=O)CCOCCOCCOCCOCCNc4ccc5c(c4)C(=O)N(C4CCC(=O)NC4=O)C5=O)CC3)cc(N3CCCc4cc(-c5cnn(C)c5)c(C(F)F)cc43)c2C1 (centres unmarked) [Compound 2024],3850 nM,,4610 nM,
"CC(=O)N1CCc2cc(C3CCN(C(=O)CCCCCCCNc4ccc5c(c4)C(=O)N(C4CCC(=O)NC4=O)C5=O)CC3)cc(N3CCCc4cc(-c5cnn(C)c5)c(C(F)F)cc43)c2C1 (centres unmarked) [Compound 2025, 5-[[8-[4-[2-acetyl-8-[7-(difluoromethyl)-6-(1-methylpyrazol-4-yl)-3,4-dihydro-2H-quinolin-1-yl]-3,4-dihydro-1H-isoquinolin-6-yl]-1-piperidinyl]-8-oxooctyl]amino]-2-(2,6-dioxo-3-piperidinyl)isoindoline-1,3-dione]",3890 nM,,7530 nM,
CC(=O)N1Cc2cc(C3CCN(C(=O)CCCCCCNc4ccc5c(c4)n(C)c(=O)n5C4CCC(=O)NC4=O)CC3)cc(N3CCCc4cc(-c5cnn(C)c5)c(C(F)F)cc43)c2C1 (centres unmarked) [Compound 2027],0.04 nM,,0.01 nM,
"CNC(=O)N1CCc2cc(C3CCN(C(=O)CCCCCCNc4ccc5c(c4)n(C)c(=O)n5C4CCC(=O)NC4=O)CC3)cc(N3CCCc4cc(-c5cnn(C)c5)c(C(F)F)cc43)c2C1 (centres unmarked) [Compound 2028, 8-[7-(difluoromethyl)-6-(1-methylpyrazol-4-yl)-3,4-dihydro-2H-quinolin-1-yl]-6-[1-[7-[[1-(2,6-dioxo-3-piperidinyl)-3-methyl-2-oxo-benzimidazol-5-yl]amino]heptanoyl]-4-piperidinyl]-N-methyl-3,4-dihydro-1H-isoquinoline-2-carboxamide]",0.1 nM,,0.26 nM,
"CC(=O)n1cc2cc(C3CCN(C(=O)CCCCCCOc4ccc5c(c4)n(C)c(=O)n5C4CCC(=O)NC4=O)CC3)cc(N3CCCc4cc(-c5cnn(C)c5)c(C(F)F)cc43)c2c1 (centres unmarked) [Compound 2029, 3-(5-((7-(4-(2-acetyl-7-(7-(difluoromethyl)-6-(1-methyl-1H-pyrazol-4-yl)-3,4-dihydroquinolin-1(2H)-yl)isoindol-5-yl)piperidin-1-yl)-7-oxoheptyl)oxy)-3-methyl-2-oxo-2,3-dihydro-1H-benzo[d]imidazol-1-yl)piperidine-2,6-dione]",0.04 nM,,0.03 nM,
CC(=O)N1Cc2cc(C3CCN(CCc4ccc(COc5cccc6c5CN(C5CCC(=O)NC5=O)C6=O)cc4)CC3)cc(N3CCCc4cc(-c5cnn(C)c5)c(C(F)F)cc43)c2C1 (centres unmarked) [Compound 2031],0.04 nM,,0.21 nM,
"CC(=O)N1Cc2cc(C3CCN(C(=O)CCCCC#Cc4ccc5c(c4)n(C)c(=O)n5C4CCC(=O)NC4=O)CC3)cc(N3CCCc4cc(-c5cnn(C)c5)c(C(F)F)cc43)c2C1 (centres unmarked) [Compound 2032, 3-{5-[7-(4-{2-acetyl-7-[7-(difluoromethyl)-6-(1-methylpyrazol-4-yl)-3,4-dihydro-2H-quinolin-1-yl]-1,3-dihydroisoindol-5-yl}piperidin-1-yl)-7-oxohept-1-yn-1-yl]-3-methyl-2-oxo-1,3-benzodiazol-1-yl}piperidine-2,6-dione]",0.16 nM,,0.11 nM,
"CC(=O)n1cc2cc(C3CCN(C(=O)CN4CCC(C#Cc5cccc6c5n(C)c(=O)n6C5CCC(=O)NC5=O)CC4)CC3)cc(N3CCCc4cc(-c5cnn(C)c5)c(C(F)F)cc43)c2c1 (centres unmarked) [Compound 2048, 3-(4-((1-(2-(4-(2-acetyl-7-(7-(difluoromethyl)-6-(1-methyl-1H-pyrazol-4-yl)-3,4-dihydroquinolin-1(2H)-yl)isoindol-5-yl)piperidin-1-yl)-2-oxoethyl)piperidin-4-yl)ethynyl)-3-methyl-2-oxo-2,3-dihydro-1H-benzo[d]imidazol-1-yl)piperidine-2,6-dione]",1.84 nM,,1.85 nM,
CC(=O)N1Cc2cc(C3CCN(Cc4ccc(COc5cccc6c5CN(C5CCC(=O)N(CO)C5=O)C6=O)cc4)CC3)cc(N3CCCc4cc(-c5cnn(C)c5)c(C(F)F)cc43)c2C1 (centres unmarked) [Compound 2053],1.02 nM,,0.36 nM,
CC(=O)N1Cc2cc(C3CCN(CC4CCN(CCOc5cccc6c5CN(C5CCC(=O)NC5=O)C6=O)CC4)CC3)cc(N3CCCc4cc(-c5cnn(C)c5)c(C(F)F)cc43)c2C1 (centres unmarked) [Compound 2054],0.84 nM,,0.26 nM,0.33 nM
CC(=O)N1Cc2cc(C3CCN(CCN4CCC(COc5cccc6c5CN(C5CCC(=O)NC5=O)C6=O)CC4)CC3)cc(N3CCCc4cc(-c5cnn(C)c5)c(C(F)F)cc43)c2C1 (centres unmarked) [Compound 2055],0.54 nM,,0.26 nM,
CC(=O)N1Cc2cc(C3CCN(CC4CCN(CCNc5ccc6c(c5)CN(C5CCC(=O)NC5=O)C6=O)CC4)CC3)cc(N3CCCc4cc(-c5cnn(C)c5)c(C(F)F)cc43)c2C1 (centres unmarked) [Compound 2062],0.24 nM,,0.06 nM,0.04 nM
CC(=O)N1Cc2cc(C3CCN(CCN4CCC(CNc5ccc6c(c5)CN(C5CCC(=O)NC5=O)C6=O)CC4)CC3)cc(N3CCCc4cc(-c5cnn(C)c5)c(C(F)F)cc43)c2C1 (centres unmarked) [Compound 2063],0.33 nM,,,0.28 nM
"CC(=O)N1Cc2cc(C3CCN(Cc4ccc(COc5cccc6c5CN(C5CCC(=O)N(COC(=O)CN)C5=O)C6=O)cc4)CC3)cc(N3CCCc4cc(-c5cnn(C)c5)c(C(F)F)cc43)c2C1 (centres unmarked) [Compound 2064, (3-(4-((4-((2-acetyl-7-(7-(difluoromethyl)-6-(1-methyl-1H-pyrazol-4-yl)-3,4-dihydroquinolin-1(2H)-yl)isoindol-5-yl)piperidin-1-yl)methyl)benzyl)oxy)-1-oxoisoindolin-2-yl)-2,6-dioxopiperidin-1-yl)methyl glycinate]",0.23 nM,,0.35 nM,
CNC(=O)N1CCc2cc(C3CCN(CC4CCN(CCOc5cccc6c5CN(C5CCC(=O)NC5=O)C6=O)CC4)CC3)cc(N3CCCc4cc(-c5cnn(C)c5)c(C(F)F)cc43)c2C1 (centres unmarked) [Compound 2065],0.41 nM,,,0.28 nM
"CNC(=O)N1CCc2cc(C3CCN(CCc4ccc(COc5cccc6c5CN(C5CCC(=O)NC5=O)C6=O)cc4)CC3)cc(N3CCCc4cc(-c5cnn(C)c5)c(C(F)F)cc43)c2C1 (centres unmarked) [Compound 2066, 8-(7-(difluoromethyl)-6-(1-methyl-1H-pyrazol-4-yl)-3,4-dihydroquinolin-1(2H)-yl)-6-(1-(4-(((2-(2,6-dioxopiperidin-3-yl)-1-oxoisoindolin-4-yl)oxy)methyl)phenylethyl)piperidin-4-yl)-N-methyl-3,4-dihydroisoquinoline-2(1H)-carboxamide]",0.08 nM,,,0.23 nM
CC(=O)N1Cc2cc(C3CCN(CCC4CCN(c5ccc6c(c5)CN(C5CCC(=O)NC5=O)C6=O)CC4)CC3)cc(N3CCCc4cc(-c5cnn(C)c5)c(C(F)F)cc43)c2C1 (centres unmarked) [Compound 2069],0.38 nM,,,0.36 nM
CC(=O)N1Cc2cc(C3CCN(CCN4CCN(c5ccc6c(c5)CN(C5CCC(=O)NC5=O)C6=O)CC4)CC3)cc(N3CCCc4cc(-c5cnn(C)c5)c(C(F)F)cc43)c2C1 (centres unmarked) [Compound 2070],0.42 nM,,,0.34 nM
CC(=O)N1Cc2cc(C3CCN(CCN4CCC(COc5ccc6c(c5)CN(C5CCC(=O)NC5=O)C6=O)CC4)CC3)cc(N3CCCc4cc(-c5cnn(C)c5)c(C(F)F)cc43)c2C1 (centres unmarked) [Compound 2071],0.5 nM,,,0.31 nM
"CC(=O)N1Cc2cc(C3CCOCC3)cc(-c3cccc4cc(-c5ccc(C(=O)N6CCC(Nc7cccc8c7C(=O)N(C7CCC(=O)NC7=O)C8=O)CC6)nc5)ncc34)c2C1 (centres unmarked) [Compound 2074, 4-((1-(5-(8-(2-acetyl-6-(tetrahydro-2H-pyran-4-yl)isoindolin-4-yl)isoquinolin-3-yl)pyridinecarbonyl)piperidin-4-yl)amino)-2-(2,6-dioxopiperidin-3-yl)isoindoline-1,3-dione]",> 10000 nM,,,426 nM

# — patent EP4813980A1, “EP300/CBP REGULATOR, AND PREPARATION METHOD THEREFOR AND USE THEREOF” (Miracure Biotechnology Limited, priority 2023, dated 2025)
